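How tested: cells in 96-well plates exposed to compound for 48 hours at five concentrations. GI50 = concentration required for 50% inhibition of growth.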 Calls of active or inactive are those of the source. Rule as the data show it: active = GI50 up to about 1.1 µM and inactive = higher.
Key:
Assay in all cases: NCI tumour cell line growth inhibition, 48 h
OVCAR-8 = system: OVCAR-8
TK-10 = system: TK-10
NCI/ADR-RES = system: NCI/ADR-RES
M14 = system: M14
SF-268 = system: SF-268
HOP-62 = system: HOP-62
Hs-578T = system: Hs-578T
SN12C = system: SN12C
SK-MEL-28 = system: SK-MEL-28
CAKI-1 = system: CAKI-1
HL-60 = system: HL-60
IGROV-1 = system: IGROV-1
KM12 = system: KM12
UACC-62 = system: UACC-62
SK-MEL-2 = system: SK-MEL-2
MDA-N = system: MDA-N
MDA-MB-231 = system: MDA-MB-231
K562 = system: K562
NCI-H226 = system: NCI-H226

| SMILES | GI50 (OVCAR-8) | GI50 (TK-10) | GI50 (NCI/ADR-RES) | GI50 (M14) | GI50 (SF-268) | GI50 (HOP-62) | GI50 (Hs-578T) | GI50 (SN12C) | GI50 (SK-MEL-28) | GI50 (CAKI-1) | GI50 (HL-60) | GI50 (IGROV-1) | GI50 (KM12) | GI50 (UACC-62) | GI50 (SK-MEL-2) | GI50 (MDA-N) | GI50 (MDA-MB-231) | GI50 (K562) | GI50 (NCI-H226) |
| --- | --- | --- | --- | --- | --- | --- | --- | --- | --- | --- | --- | --- | --- | --- | --- | --- | --- | --- | --- |
| O=C(O)c1cc2ccccc2c(/N=N/c2ccccc2)c1O | 37.2 µM (inactive) | 29 µM (inactive) | 27.2 µM (inactive) | 14.9 µM (inactive) | 30 µM (inactive) | 14.8 µM (inactive) | 6.82 µM (inactive) | 23.3 µM (inactive) | 29.8 µM (inactive) | 35.6 µM (inactive) | 10 µM (inactive) | 34.1 µM (inactive) | 14.9 µM (inactive) | 17.4 µM (inactive) | > 10 µM (inactive) | 19.1 µM (inactive) | > 100 µM (inactive) | 36.8 µM (inactive) | – |
| Cc1nc(C)c(C(=O)NNC(N)=S)cc1C(=O)NNC(N)=S | > 100 µM (inactive) | > 100 µM (inactive) | > 100 µM (inactive) | > 100 µM (inactive) | > 100 µM (inactive) | > 100 µM (inactive) | > 100 µM (inactive) | > 100 µM (inactive) | > 100 µM (inactive) | > 100 µM (inactive) | > 100 µM (inactive) | > 100 µM (inactive) | > 100 µM (inactive) | > 100 µM (inactive) | > 100 µM (inactive) | > 100 µM (inactive) | > 100 µM (inactive) | > 100 µM (inactive) | > 100 µM (inactive) |
| CC(=O)Nc1ccc2c(c1)/C(=C\c1ccc([N+](C)(C)C)cc1)c1ccccc1-2 | 41.7 µM (inactive) | > 100 µM (inactive) | > 100 µM (inactive) | 16 µM (inactive) | 64.9 µM (inactive) | 48.3 µM (inactive) | 35.4 µM (inactive) | 31 µM (inactive) | 35.5 µM (inactive) | > 100 µM (inactive) | 24.8 µM (inactive) | 35.4 µM (inactive) | 31.9 µM (inactive) | 48 µM (inactive) | – | 32.8 µM (inactive) | 4.43 µM (inactive) | 29.6 µM (inactive) | 23.1 µM (inactive) |
| Cc1nc2c(cc1OCc1ccccc1)C(=O)C1=C(C2=O)C2OC(=O)CC2OC1(C)C (stereo not given) | 2.72 µM (inactive) | 1.43 µM (inactive) | 3.14 µM (inactive) | 0.536 µM (active) | 0.475 µM (active) | 1.52 µM (inactive) | 0.169 µM (active) | 0.182 µM (active) | 0.33 µM (active) | 0.468 µM (active) | 0.0697 µM (active) | 0.312 µM (active) | 0.531 µM (active) | 0.174 µM (active) | 1.46 µM (inactive) | 0.404 µM (active) | 0.43 µM (active) | – | 1.09 µM (active) |
| CCCCOC(=O)C(NC(C(=O)OCCCC)c1cc(C(C)(C)C)c(O)c(C(C)(C)C)c1)c1cc(C(C)(C)C)c(O)c(C(C)(C)C)c1 (stereo not given) | > 100 µM (inactive) | > 100 µM (inactive) | > 100 µM (inactive) | > 100 µM (inactive) | > 100 µM (inactive) | > 100 µM (inactive) | > 100 µM (inactive) | > 100 µM (inactive) | > 100 µM (inactive) | > 100 µM (inactive) | > 100 µM (inactive) | > 100 µM (inactive) | > 100 µM (inactive) | > 100 µM (inactive) | > 100 µM (inactive) | > 100 µM (inactive) | > 100 µM (inactive) | 56.9 µM (inactive) | > 100 µM (inactive) |
| CN1CCN(c2ccc3nc(-c4cc(O)c5c(nc(CO)n5C)c4O)[nH]c3n2)CC1 | 28.6 µM (inactive) | – | > 100 µM (inactive) | 34.7 µM (inactive) | 48.1 µM (inactive) | 52 µM (inactive) | > 100 µM (inactive) | 16.7 µM (inactive) | > 100 µM (inactive) | > 100 µM (inactive) | 16.4 µM (inactive) | 64.6 µM (inactive) | 54.2 µM (inactive) | 11.6 µM (inactive) | 11 µM (inactive) | 34.2 µM (inactive) | 22.4 µM (inactive) | 28.8 µM (inactive) | 22.7 µM (inactive) |
| Cc1cc(C)c2c(-c3ccccc3)cc(=O)[nH]c2c1 | > 100 µM (inactive) | > 100 µM (inactive) | > 100 µM (inactive) | > 100 µM (inactive) | > 100 µM (inactive) | > 100 µM (inactive) | > 100 µM (inactive) | > 100 µM (inactive) | > 100 µM (inactive) | – | > 100 µM (inactive) | > 100 µM (inactive) | > 100 µM (inactive) | > 100 µM (inactive) | > 100 µM (inactive) | > 100 µM (inactive) | > 100 µM (inactive) | > 100 µM (inactive) | > 100 µM (inactive) |
| CCCCCCCc1ccc(-c2nnc(/N=N/c3ccc(OCCCCC)cc3)s2)s1 | – | > 100 µM (inactive) | > 100 µM (inactive) | > 100 µM (inactive) | > 100 µM (inactive) | > 100 µM (inactive) | > 100 µM (inactive) | > 100 µM (inactive) | > 100 µM (inactive) | > 100 µM (inactive) | > 100 µM (inactive) | 79.1 µM (inactive) | > 100 µM (inactive) | > 100 µM (inactive) | > 100 µM (inactive) | > 100 µM (inactive) | > 100 µM (inactive) | – | > 100 µM (inactive) |
| COc1ccccc1C1=C2C(=O)N(C)C(c3ccccc3OC)=C2C(=O)N1C | 39.2 µM (inactive) | 70.6 µM (inactive) | 45.7 µM (inactive) | > 100 µM (inactive) | 36.1 µM (inactive) | 18.9 µM (inactive) | 43.8 µM (inactive) | > 100 µM (inactive) | 76.6 µM (inactive) | > 100 µM (inactive) | > 100 µM (inactive) | > 100 µM (inactive) | > 100 µM (inactive) | > 100 µM (inactive) | – | > 100 µM (inactive) | 48.1 µM (inactive) | > 100 µM (inactive) | 84.3 µM (inactive) |
| CC(C)N(C(C)C)S(=O)(=O)C[C@]12CC[C@H](CC13OCC(CS(=O)(=O)c1ccccc1)O3)C2(C)C (stereo not given in full) | 47 µM (inactive) | 44.9 µM (inactive) | 41.9 µM (inactive) | 47 µM (inactive) | 59.2 µM (inactive) | > 51.2 µM (inactive) | 94.4 µM (inactive) | 47.8 µM (inactive) | > 93.5 µM (inactive) | 81.3 µM (inactive) | 13 µM (inactive) | > 28.7 µM (inactive) | 36.4 µM (inactive) | 49 µM (inactive) | 52.5 µM (inactive) | 51.4 µM (inactive) | > 100 µM (inactive) | 24.5 µM (inactive) | 34.1 µM (inactive) |
| CCCCCCCCCCCCc1ccc(S(=O)(=O)O)cc1 | > 100 µM (inactive) | > 100 µM (inactive) | > 100 µM (inactive) | > 100 µM (inactive) | > 100 µM (inactive) | > 100 µM (inactive) | > 100 µM (inactive) | > 100 µM (inactive) | > 100 µM (inactive) | > 100 µM (inactive) | > 100 µM (inactive) | 11.5 µM (inactive) | > 100 µM (inactive) | 34.4 µM (inactive) | – | > 100 µM (inactive) | > 100 µM (inactive) | > 100 µM (inactive) | 90.6 µM (inactive) |

Source: ChEMBL document CHEMBL1201862, “PubChem BioAssay data set” (2004)
